Data: ChEMBL document CHEMBL5331140, “Discovery of IACS-52825, a Potent and Selective DLK Inhibitor for Treatment of Chemotherapy-Induced Peripheral Neuropathy” (J Med Chem, 2023)
In brackets after ≈: the same amount, converted by molar mass.

Tests used:
[1] = Volume of distribution at steady state in cynomolgus monkey at 1 mg/kg, po or 0.3 mg/kg, iv measured for 24 hrs by LC-MS/MS analysis; assay type: ADME, organism-based, Macaca fascicularis; conditions: in vivo
[2] = Metabolic stability in monkey hepatocytes assessed as intrinsic clearance at 2 uM measured for 120 mins by LC-MS analysis; assay type: ADME, cell-based, Macaca mulatta, Hepatocyte; conditions: rhesus monkey, read-out: CLH
Mus musculus = test: Antiallodynic activity in po dosed C57BL/6 mouse model of cisplatin-induced mechanical allodynia assessed as increase in paw withdrawal threshold stimulated with cisplatin on day 1 to 5 and 10 to 15 followed by daily administration of compound starting from day 16 and measured for 43 days by von frey test; assay type: functional, organism-based; conditions: dose 3-30 mg/kg, time 28.0 day
[3] = Metabolic stability in rat hepatocytes assessed as intrinsic clearance at 2 uM measured for 120 mins by LC-MS analysis; assay type: ADME, cell-based, Hepatocyte; conditions: read-out: CLH
[4] = AUClast in Beagle dog at 1 mg/kg, po or 0.3 mg/kg, iv measured for 24 hrs by LC-MS/MS analysis; assay type: ADME, organism-based, Canis lupus familiaris; design: time 24 hrs, dose 1 mg/kg, route po; conditions: in vivo
[5] = Cmax in cynomolgus monkey at 1 mg/kg, po or 0.3 mg/kg, iv measured for 24 hrs by LC-MS/MS analysis; assay type: ADME, organism-based, Macaca fascicularis; design: dose 1 mg/kg, time 24 hrs, route po; conditions: in vivo
[6] = Bioavailability in Beagle dog at 1 mg/kg, po or 0.3 mg/kg, iv measured for 24 hrs by LC-MS/MS analysis; assay type: ADME, organism-based, Canis lupus familiaris; conditions: in vivo
[7] = Toxicity in monkey measured after 7 days by IND-enabling study; design: species or system Macaca mulatta; conditions: rhesus monkey, in vivo, 168 h; time 7 day
[8] = Metabolic stability in mouse liver microsomes assessed as intrinsic clearance at 1 uM in presence of NADPH regenerating system measured for 45 mins by LC-MS/MS analysis; assay type: ADME, Microsome; conditions: read-out: CLH
[9] = Permeability in wild type MDCK cells across apical to basolateral side at 5 uM incubated for 90 mins by LC-MS/MS analysis; assay type: ADME, cell-based, Canis lupus familiaris; conditions: dog, read-out: permeability
[10] = Binding affinity to full length human DLK (1 to 859 residues)/NFkappaB DNA binding domain (unknown origin) fusion protein transfected in HEK293 cells assessed as dissociation constant incubated for 1 hr by Kinomescan assay; assay type: cell-based
[11] = Half life in Beagle dog at 1 mg/kg, po or 0.3 mg/kg, iv measured for 24 hrs by LC-MS/MS analysis; assay type: ADME, organism-based, Canis lupus familiaris; conditions: in vivo
[12] = Metabolic stability in dog liver microsomes assessed as intrinsic clearance at 1 uM in presence of NADPH regenerating system measured for 45 mins by LC-MS/MS analysis; assay type: ADME, Canis lupus familiaris, Microsome; conditions: read-out: CLH
Cytochrome P450 2C9 = Cytochrome P450 2C9 (Homo sapiens, UniProt P11712); test: Inhibition of CYP2C9 in human liver microsomes using diclofenac as substrate incubated for 10 mins in presence of NADPH by LC-MS/MS analysis; assay type: ADME, Microsome
Sequence of Cytochrome P450 2C9 (P11712 whole entry): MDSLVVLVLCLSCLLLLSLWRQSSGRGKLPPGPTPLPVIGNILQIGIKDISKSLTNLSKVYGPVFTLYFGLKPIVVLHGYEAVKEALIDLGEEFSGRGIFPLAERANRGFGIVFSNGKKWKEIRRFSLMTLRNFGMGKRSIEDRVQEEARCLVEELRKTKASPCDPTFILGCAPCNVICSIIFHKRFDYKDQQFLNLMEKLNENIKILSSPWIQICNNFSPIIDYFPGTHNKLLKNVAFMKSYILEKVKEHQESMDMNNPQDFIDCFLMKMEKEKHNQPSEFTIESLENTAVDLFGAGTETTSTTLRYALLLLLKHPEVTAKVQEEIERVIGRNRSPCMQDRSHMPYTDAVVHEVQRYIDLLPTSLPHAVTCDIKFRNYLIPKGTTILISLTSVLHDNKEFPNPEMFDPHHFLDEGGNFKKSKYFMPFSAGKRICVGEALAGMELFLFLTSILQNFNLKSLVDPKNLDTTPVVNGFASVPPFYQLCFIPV

[13] = Oral bioavailability in Sprague-Dawley rat at 3 mg/kg measured for 24 hrs by LC-MS/MS analysis; assay type: ADME, organism-based; conditions: in vivo
Cytochrome P450 3A4 = Cytochrome P450 3A4 (Homo sapiens, UniProt P08684); test: Inhibition of CYP3A4 in human liver microsomes using testosterone as substrate incubated for 5 mins in presence of NADPH by LC-MS/MS analysis; assay type: ADME, Microsome
Sequence of Cytochrome P450 3A4 (P08684 whole entry): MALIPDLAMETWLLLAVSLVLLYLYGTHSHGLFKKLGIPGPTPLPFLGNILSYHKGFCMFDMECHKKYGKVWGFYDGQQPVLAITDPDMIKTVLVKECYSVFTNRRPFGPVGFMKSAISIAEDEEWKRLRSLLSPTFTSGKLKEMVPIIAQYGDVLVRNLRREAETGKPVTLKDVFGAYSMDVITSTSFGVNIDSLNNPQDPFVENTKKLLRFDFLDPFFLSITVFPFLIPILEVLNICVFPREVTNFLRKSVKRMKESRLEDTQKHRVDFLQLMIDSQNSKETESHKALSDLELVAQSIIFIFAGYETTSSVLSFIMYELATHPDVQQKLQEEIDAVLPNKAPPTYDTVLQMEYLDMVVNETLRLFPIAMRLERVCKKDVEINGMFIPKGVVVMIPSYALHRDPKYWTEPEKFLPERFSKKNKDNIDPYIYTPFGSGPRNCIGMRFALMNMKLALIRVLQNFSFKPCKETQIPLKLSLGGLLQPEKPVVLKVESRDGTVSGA

[14] = Plasma clearance in C57BL/6 mouse at 0.3 mg/kg, iv administered via tail vein and measured for 24 hrs by LC-MS/MS analysis; assay type: ADME, organism-based
[15] = Cmax in Beagle dog at 1 mg/kg, po or 0.3 mg/kg, iv measured for 24 hrs by LC-MS/MS analysis; assay type: ADME, organism-based, Canis lupus familiaris; design: time 24 hrs, dose 1 mg/kg, route po; conditions: in vivo
[16] = Metabolic stability in mouse hepatocytes assessed as intrinsic clearance at 2 uM measured for 120 mins by LC-MS analysis; assay type: ADME, cell-based, Hepatocyte; conditions: read-out: CLH
[17] = Metabolic stability in dog hepatocytes assessed as intrinsic clearance at 2 uM measured for 120 mins by LC-MS analysis; assay type: ADME, cell-based, Canis lupus familiaris, Hepatocyte; conditions: read-out: CLH
[18] = Half life in C57BL/6 mouse at 0.3 mg/kg, iv administered via tail vein and measured for 24 hrs by LC-MS/MS analysis; assay type: ADME, organism-based; conditions: in vivo
[19] = AUClast in cynomolgus monkey at 1 mg/kg, po or 0.3 mg/kg, iv measured for 24 hrs by LC-MS/MS analysis; assay type: ADME, organism-based, Macaca fascicularis; design: dose 1 mg/kg, time 24 hrs, route po; conditions: in vivo
[20] = Protein binding in mouse brain homogenate incubated for 5 hrs by UPLC-MS/MS analysis; assay type: ADME, tissue-based; conditions: read-out: PB (converted)
[21] = Permeability in MDCK-MDR1 cells across basolateral to apical side at 5 uM incubated for 90 mins by LC-MS/MS analysis; assay type: ADME, cell-based, Canis lupus familiaris; conditions: dog, read-out: permeability
[22] = Half life in Sprague-Dawley rat at 3 mg/kg, po or 1 mg/kg, iv measured for 24 hrs by LC-MS/MS analysis; assay type: ADME, organism-based; conditions: in vivo
[23] = AUClast in C57BL/6 mouse at 10 mg/kg administered via oral gavage and measured for 24 hrs by LC-MS/MS analysis; assay type: ADME, organism-based; design: time 24 hrs, dose 10 mg/kg, route po; conditions: in vivo
[24] = Thermodynamic aqueous solubility of compound in FeSSIF at pH 5 incubated for 1 hr under shaking condition by LC-MS/MS analysis; assay type: physicochemical; conditions: read-out: Therm_solubility
[25] = Permeability in wild type MDCK cells across basolateral to apical side at 5 uM incubated for 90 mins by LC-MS/MS analysis; assay type: ADME, cell-based, Canis lupus familiaris; conditions: dog, read-out: permeability
[26] = Half life in cynomolgus monkey at 1 mg/kg, po or 0.3 mg/kg, iv measured for 24 hrs by LC-MS/MS analysis; assay type: ADME, organism-based, Macaca fascicularis; conditions: in vivo
[27] = Metabolic stability in monkey liver microsomes assessed as intrinsic clearance at 1 uM in presence of NADPH regenerating system measured for 45 mins by LC-MS/MS analysis; assay type: ADME, Macaca mulatta, Microsome; conditions: rhesus monkey, read-out: CLH
[28] = Permeability in MDCK-MDR1 cells across apical to basolateral side at 5 uM incubated for 90 mins by LC-MS/MS analysis; assay type: ADME, cell-based, Canis lupus familiaris; conditions: dog, read-out: permeability
[29] = Volume of distribution at steady state in Sprague-Dawley rat at 3 mg/kg, po or 1 mg/kg, iv measured for 24 hrs by LC-MS/MS analysis; assay type: ADME, organism-based; conditions: in vivo
[30] = Toxicity in rat measured after 14 days by IND-enabling study; conditions: in vivo, 336 h, time 14 day
[31] = Plasma protein binding in monkey at 5 uM incubated for 5 hrs by rapid equilibrium dialysis method; assay type: ADME, cell-free, Macaca mulatta; conditions: rhesus monkey, read-out: PPB (converted)
[32] = Ratio of unbound drug concentration in C57BL/6 mouse brain to plasma at 0.3 mg/kg, iv measured for 24 hrs by LC-MS/MS analysis; assay type: ADME, organism-based; conditions: brain and plasma, read-out: K(p,uu,brain)
[33] = Metabolic stability in rat liver microsomes assessed as intrinsic clearance at 1 uM in presence of NADPH regenerating system measured for 45 mins by LC-MS/MS analysis; assay type: ADME, Microsome; conditions: read-out: CLH
[34] = Thermodynamic aqueous solubility of compound in phosphate buffer at pH 7 incubated for 1 hr under shaking condition by LC-MS/MS analysis; assay type: physicochemical; conditions: read-out: Therm_solubility
[35] = AUClast in Sprague-Dawley rat at 3 mg/kg, po or 1 mg/kg, iv measured for 24 hrs by LC-MS/MS analysis; assay type: ADME, organism-based; design: time 24 hrs, dose 3 mg/kg, route po; conditions: in vivo
[36] = Oral bioavailability in C57BL/6 mouse at 10 mg/kg administered via oral gavage and measured for 24 hrs by LC-MS/MS analysis; assay type: ADME, organism-based; conditions: C57BL/6, mouse, in vivo
[37] = Plasma protein binding in rat at 5 uM incubated for 5 hrs by rapid equilibrium dialysis method; assay type: ADME, cell-free; conditions: read-out: PPB (converted)

Vdss [1]: 5.3 L/kg
CLint scaled at 2 µM [2]: 23 mL/min/kg
CLint scaled at 2 µM [3]: 4.4 mL/min/kg
AUC(0-t) at 24 h [4]: 15.3 µM·h
Cmax [5]: 350 nM
bioavailability [6]: > 100%
CLint scaled at 1 µM [8]: 14 mL/min/kg
Papp A→B at 1.5 h, 5 µM [9]: 38 ×10⁻⁶ cm/s
half-life [11]: 8.5 h
CLint scaled at 1 µM [12]: 12 mL/min/kg
IC50 (Cytochrome P450 2C9): > 10 µM
bioavailability [13]: 95%
IC50 (Cytochrome P450 3A4): > 10 µM
clearance [14]: 4.3 mL/min/kg
Cmax [15]: 1200 nM
CLint scaled at 2 µM [16]: 2.5 mL/min/kg
CLint scaled at 2 µM [17]: 9.2 mL/min/kg
half-life [18]: 13 h
AUC(0-t) at 24 h [19]: 4.7 µM·h
fraction unbound at 5 h [20]: 0.039
Papp B→A at 1.5 h, 5 µM [21]: 43 ×10⁻⁶ cm/s
half-life [22]: 12 h
AUClast [23]: 111 µM·h
solubility thermodynamic at 1 h [24]: 152 µM (≈ 64.8 µg/mL)
Papp B→A at 1.5 h, 5 µM [25]: 31 ×10⁻⁶ cm/s
half-life [26]: 7.2 h
CLint scaled at 1 µM [27]: 11 mL/min/kg
Papp A→B at 1.5 h, 5 µM [28]: 43 ×10⁻⁶ cm/s
Vdss [29]: 5.6 L/kg
fraction unbound at 5 h, 5 µM [31]: 0.139
Kp uu at 24 h [32]: 0.92
CLint scaled at 1 µM [33]: 16 mL/min/kg
solubility thermodynamic at 1 h [34]: 33 µM (≈ 14.1 µg/mL)
AUC(0-t) at 24 h [35]: 16.8 µM·h
bioavailability [36]: > 100%
fraction unbound at 5 h, 5 µM [37]: 0.118
SMILES: Nc1ncc(-c2cn(C34CC(F)(C3)C4)c([C@@H](O)C(F)(F)F)n2)cc1OC(F)(F)F
Activity (Mus musculus): Dose-Dependent Effect
Activity [7]: Non-Toxic
Kd [10]: 0.0013 µM
Activity [30]: Non-Toxic
